In patent publication US20250215012A1, “IKZF2 DEGRADERS AND USES THEREOF” (REGENTS OF THE UNIVERSITY OF MICHIGAN, priority 2022, published 2025):

Biological target: IKZF2 (Homo sapiens (Human), UniProt Q96SW2+Q9UKS7)
Assay: IKZF2 HiBiT Assay (Jurkat-IKZF2-HiBiT cell line)
Type: cell-based
Settings: Jurkat-IKZF2-HiBiT cells, 24 hours; for DC50: read-out: HiBit assay degradation analysis DC50; for Dmax: read-out: HiBit assay degradation analysis Dmax
Description: Degradation of IKZF2 protein is determined by IKZF2 HiBiT assay using the Jurkat-IKZF2-HiBiT (Promega) cell line. Briefly, cells are seeded in culture medium. Compounds are serially diluted in culture medium, and certain volume of the diluted compounds is added to the appropriate well of the plate. After the addition of compounds, the cells are incubated. At the end of treatment, Nano-Glo HiBiT Lytic Detection Reagent (Promega) is added to each well, and then the plates are incubated at room temperature for a certain time period. The luminescent signal is measured using a CALRIOstar plate reader (BMG Labtech). The readings are normalized to the DMSO-treated cells and the IC50 is calculated by nonlinear regression (four parameters sigmoid fitted with variable slope, least squares fit, and no constraint) analysis using the GraphPad Prism 8 software.
Degradation of IKZF2 protein was determined by IKZF2 HiBiT assay using the Jurkat-IKZF2-HiBiT (Promega) cell line. […] Compounds were serially diluted in culture medium, and 20 μl of the diluted compounds were added to the appropriate wells of the plate. After the addition of compounds, the cells were incubated at 37° C. in an atmosphere of 5% CO2 for 24 hours. At the end of treatment, 40 ul of Nano-Glo HiBiT Lytic Detection Reagent (Promega) was added to each well, and then the plates were incubated at room temperature for 10-20 minutes. The luminescent signal was measured using a CALRIOstar plate reader (BMG Labtech). The readings were normalized to the DMSO-treated cells and the IC50 was calculated by nonlinear regression (four parameters sigmoid fitted with variable slope, least squares fit, and no constraint) analysis using the GraphPad Prism 8 software.

Chain of IKZF2 (Q9UKS7 whole entry): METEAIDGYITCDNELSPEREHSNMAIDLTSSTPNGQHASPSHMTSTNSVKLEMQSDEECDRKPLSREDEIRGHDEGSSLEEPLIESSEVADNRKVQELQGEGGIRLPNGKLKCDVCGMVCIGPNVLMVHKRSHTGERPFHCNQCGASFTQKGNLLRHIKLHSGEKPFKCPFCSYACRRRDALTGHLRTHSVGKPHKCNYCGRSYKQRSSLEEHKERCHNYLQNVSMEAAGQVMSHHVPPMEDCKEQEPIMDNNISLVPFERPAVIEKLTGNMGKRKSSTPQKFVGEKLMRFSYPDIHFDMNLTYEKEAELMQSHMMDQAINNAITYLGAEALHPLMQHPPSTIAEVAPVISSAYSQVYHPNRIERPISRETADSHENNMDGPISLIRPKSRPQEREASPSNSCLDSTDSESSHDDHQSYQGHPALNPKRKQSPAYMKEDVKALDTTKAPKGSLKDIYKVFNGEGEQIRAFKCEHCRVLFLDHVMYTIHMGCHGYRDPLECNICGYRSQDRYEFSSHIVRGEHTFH
Chain of IKZF2 (Q96SW2 whole entry): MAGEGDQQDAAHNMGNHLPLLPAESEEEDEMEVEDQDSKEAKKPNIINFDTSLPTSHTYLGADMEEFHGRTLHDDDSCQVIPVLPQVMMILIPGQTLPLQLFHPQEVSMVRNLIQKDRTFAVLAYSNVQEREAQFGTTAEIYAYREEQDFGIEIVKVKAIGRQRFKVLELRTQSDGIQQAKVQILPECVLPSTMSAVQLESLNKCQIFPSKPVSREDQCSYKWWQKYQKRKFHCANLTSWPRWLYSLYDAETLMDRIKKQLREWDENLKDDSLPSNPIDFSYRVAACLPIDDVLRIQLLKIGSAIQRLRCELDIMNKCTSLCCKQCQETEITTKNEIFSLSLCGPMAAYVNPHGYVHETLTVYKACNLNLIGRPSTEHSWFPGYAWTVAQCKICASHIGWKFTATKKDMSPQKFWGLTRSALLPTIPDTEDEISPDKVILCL
Chain of IKZF2 (Q16531 whole entry partner): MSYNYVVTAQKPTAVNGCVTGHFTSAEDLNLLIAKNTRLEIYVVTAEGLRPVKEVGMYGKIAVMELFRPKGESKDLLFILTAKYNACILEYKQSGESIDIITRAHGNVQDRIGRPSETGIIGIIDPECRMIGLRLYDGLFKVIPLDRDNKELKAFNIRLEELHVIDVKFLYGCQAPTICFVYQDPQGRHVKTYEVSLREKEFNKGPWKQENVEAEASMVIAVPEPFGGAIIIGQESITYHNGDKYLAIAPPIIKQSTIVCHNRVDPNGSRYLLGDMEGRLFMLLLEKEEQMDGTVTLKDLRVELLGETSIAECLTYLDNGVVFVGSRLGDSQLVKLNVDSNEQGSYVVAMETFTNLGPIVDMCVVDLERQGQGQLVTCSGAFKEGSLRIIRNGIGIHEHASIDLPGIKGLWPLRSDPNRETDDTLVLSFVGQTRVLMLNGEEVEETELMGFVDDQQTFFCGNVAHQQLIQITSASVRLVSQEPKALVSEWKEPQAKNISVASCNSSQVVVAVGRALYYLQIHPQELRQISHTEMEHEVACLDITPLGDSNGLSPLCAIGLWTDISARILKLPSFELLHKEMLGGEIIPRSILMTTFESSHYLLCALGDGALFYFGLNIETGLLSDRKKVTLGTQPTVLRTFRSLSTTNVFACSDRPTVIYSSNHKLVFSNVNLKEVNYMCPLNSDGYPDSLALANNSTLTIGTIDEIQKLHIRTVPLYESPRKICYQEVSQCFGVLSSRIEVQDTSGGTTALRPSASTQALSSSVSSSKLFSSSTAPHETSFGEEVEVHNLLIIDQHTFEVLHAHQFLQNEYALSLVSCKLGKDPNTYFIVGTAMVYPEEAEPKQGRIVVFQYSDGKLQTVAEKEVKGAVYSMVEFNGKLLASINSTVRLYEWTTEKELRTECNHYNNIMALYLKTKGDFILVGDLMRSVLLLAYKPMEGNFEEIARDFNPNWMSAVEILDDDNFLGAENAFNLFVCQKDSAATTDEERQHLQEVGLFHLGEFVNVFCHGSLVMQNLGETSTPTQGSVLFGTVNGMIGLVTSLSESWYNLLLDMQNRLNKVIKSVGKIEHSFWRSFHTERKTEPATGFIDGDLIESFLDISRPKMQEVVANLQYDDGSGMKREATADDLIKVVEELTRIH

Row | Compound | DC50 | Dmax
1 | Cn1ncc2cccc(CN3CCC4(CC3)COc3c4ccc4c3CN(C3CCC(=O)NC3=O)C4=O)c21 (centres unmarked) [Compound A53, 3-(1′-((1-methyl-1H-indazol-7-yl)methyl)-6-oxo-6,8-dihydro-2H,7H-spiro[furo[2,3-e]isoindole-3,4′-piperidin]-7-yl)piperidine-2,6-dione] | > 500 nM | 40 to 60%
2 | O=C1CCC(N2Cc3c(ccc4c3OCC43CCN(Cc4cccc(-c5ncon5)c4)CC3)C2=O)C(=O)N1 (centres unmarked) [Compound A150, 3-(1′-(3-(1,2,4-oxadiazol-3-yl)benzyl)-6-oxo-6,8-dihydro-2H,7H-spiro[furo[2,3-e]isoindole-3,4′-piperidin]-7-yl)piperidine-2,6-dione] | 50 to 200 nM | 60 to 80%
3 | O=C1CCC(N2Cc3c(ccc4c3OCC43CCN(Cc4cnn(CC(F)(F)F)c4)CC3)C2=O)C(=O)N1 (centres unmarked) [Compound A232, 3-(6-oxo-1′-((1-(2,2,2-trifluoroethyl)-1H-pyrazol-4-yl)methyl)-6,8-dihydro-2H,7H-spiro[furo[2,3-e]isoindole-3,4′-piperidin]-7-yl)piperidine-2,6-dione] | > 500 nM | 40 to 60%
4 | CS(=O)(=O)c1ccc(CN2CCC3(CC2)COc2c3ccc3c2CN(C2CCC(=O)NC2=O)C3=O)cc1 (centres unmarked) [Compound A236, 3-(1′-(4-(methylsulfonyl)benzyl)-6-oxo-6,8-dihydro-2H,7H-spiro[furo[2,3-e]isoindole-3,4′-piperidin]-7-yl)piperidine-2,6-dione] | > 500 nM | < 40%
5 | N#Cc1ccc(CN2CCC3(CC2)COc2c3ccc3c2CN(C2CCC(=O)NC2=O)C3=O)cc1Cl (centres unmarked) [Compound A33, 2-chloro-4-((7-(2,6-dioxopiperidin-3-yl)-6-oxo-7,8-dihydro-2H,6H-spiro[furo[2,3-e]isoindole-3,4′-piperidin]-1′-yl)methyl)benzonitrile] | > 500 nM | 40 to 60%
6 | O=C1CCC(N2Cc3c(ccc4c3OCC43CCN(CC4(c5ccccc5)CC4)CC3)C2=O)C(=O)N1 (centres unmarked) [Compound A333, 3-(6-oxo-1′-((1-phenylcyclopropyl)methyl)-6,8-dihydro-2H,7H-spiro[furo[2,3-e]isoindole-3,4′-piperidin]-7-yl)piperidine-2,6-dione] | > 500 nM | 40 to 60%
7 | O=C1CCC(N2Cc3c(ccc4c3OCC43CCN(Cc4cc(F)cc5ccoc45)CC3)C2=O)C(=O)N1 (centres unmarked) [Compound A117, 3-(1′-((5-fluorobenzofuran-7-yl)methyl)-6-oxo-6,8-dihydro-2H,7H-spiro[furo[2,3-e]isoindole-3,4′-piperidin]-7-yl)piperidine-2,6-dione] | 200 to 500 nM | 40 to 60%
8 | O=C1CC[C@H](N2Cc3c(ccc4c3OCC43CCN(Cc4cnn(CC5C[C@@H]5c5ccccc5)c4)CC3)C2=O)C(=O)N1 (stereo partly drawn) [Compound A347, (S)-3-(6-oxo-1′-((1-(((1S,2S)-2-phenylcyclopropyl)methyl)-1H-pyrazol-4-yl)methyl)-6,8-dihydro-2H,7H-spiro[furo[2,3-e]isoindole-3,4′-piperidin]-7-yl)piperidine-2,6-dione] | < 50 nM | 
9 | O=C1CC[C@H](N2Cc3c(ccc4c3OCC43CCN(Cc4cccc(-c5cnn(C(F)(F)F)c5)c4)CC3)C2=O)C(=O)N1 [Compound A282, (S)-3-(6-oxo-1′-(3-(1-(trifluoromethyl)-1H-pyrazol-4-yl)benzyl)-6,8-dihydro-2H,7H-spiro[furo[2,3-e]isoindole-3,4′-piperidin]-7-yl)piperidine-2,6-dione] | < 50 nM | 60 to 80%
10 | Cc1[nH]c2c(CN3CCC4(CC3)COc3c4ccc4c3CN(C3CCC(=O)NC3=O)C4=O)cccc2c1C (centres unmarked) [Compound A111, 3-(1′-((2,3-dimethyl-1H-indol-7-yl)methyl)-6-oxo-6,8-dihydro-2H,7H-spiro[furo[2,3-e]isoindole-3,4′-piperidin]-7-yl)piperidine-2,6-dione] | 50 to 200 nM | 60 to 80%
11 | COc1ccc(C(=O)Nc2cccc(CN3CCC4(CC3)OCc3c4ccc4c3CN(C3CCC(=O)NC3=O)C4=O)c2)cc1 (centres unmarked) [Compound A262] | < 50 nM | 60 to 80%
12 | O=C1CCC(N2Cc3c(ccc4c3OCC43CCN(Cc4cccc(-n5cccn5)c4)CC3)C2=O)C(=O)N1 (centres unmarked) [Compound A107, 3-(1′-(3-(1H-pyrazol-1-yl)benzyl)-6-oxo-6,8-dihydro-2H,7H-spiro[furo[2,3-e]isoindole-3,4′-piperidin]-7-yl)piperidine-2,6-dione] | < 50 nM | 60 to 80%
13 | COCn1cc(-c2cccc(CN3CCC4(CC3)COc3c4ccc4c3CN([C@H]3CCC(=O)NC3=O)C4=O)c2)cn1 [Compound A294, (S)-3-(1′-(3-(1-(methoxymethyl)-1H-pyrazol-4-yl)benzyl)-6-oxo-6,8-dihydro-2H,7H-spiro[furo[2,3-e]isoindole-3,4′-piperidin]-7-yl)piperidine-2,6-dione] | < 50 nM | 60 to 80%
14 | O=C1CCC(N2Cc3c(ccc4c3OCC43CCN(Cc4cccc5c4OCC5)CC3)C2=O)C(=O)N1 (centres unmarked) [Compound A224, 3-(1′-((2,3-dihydrobenzofuran-7-yl)methyl)-6-oxo-6,8-dihydro-2H,7H-spiro[furo[2,3-e]isoindole-3,4′-piperidin]-7-yl)piperidine-2,6-dione] | 200 to 500 nM | 40 to 60%
15 | O=C1CC[C@H](N2Cc3c(ccc4c3OCC43CCN(Cc4ccccc4)CC3)C2=O)C(=O)N1 [Compound A317, (S)-3-(1′-benzyl-6-oxo-6,8-dihydro-2H,7H-spiro[furo[2,3-e]isoindole-3,4′-piperidin]-7-yl)piperidine-2,6-dione] | 200 to 500 nM | 40 to 60%
16 | O=C1CCC(N2Cc3c(ccc4c3OCC43CCN(Cc4cnn(-c5cccc(Cl)c5)c4)CC3)C2=O)C(=O)N1 (centres unmarked) [Compound A313, 3-(1′-((1-(3-chlorophenyl)-1H-pyrazol-4-yl)methyl)-6-oxo-6,8-dihydro-2H,7H-spiro[furo[2,3-e]isoindole-3,4′-piperidin]-7-yl)piperidine-2,6-dione] | 50 to 200 nM | 60 to 80%
17 | Cc1cccc(CN2CCC3(CC2)COc2c3ccc3c2CN(C2CCC(=O)NC2=O)C3=O)c1 (centres unmarked) [Compound A213, 3-(1′-(3-methylbenzyl)-6-oxo-6,8-dihydro-2H,7H-spiro[furo[2,3-e]isoindole-3,4′-piperidin]-7-yl)piperidine-2,6-dione] | < 50 nM | 60 to 80%
18 | O=C1CCC(N2Cc3c(ccc4c3OCC43CCN(Cc4ccc5cc[nH]c5n4)CC3)C2=O)C(=O)N1 (centres unmarked) [Compound A66, 3-(1′-((1H-pyrrolo[2,3-b]pyridin-6-yl)methyl)-6-oxo-6,8-dihydro-2H,7H-spiro[furo[2,3-e]isoindole-3,4′-piperidin]-7-yl)piperidine-2,6-dione] | > 500 nM | 40 to 60%
19 | O=C1CCC(N2Cc3c(ccc4c3OCC43CCN(Cc4cccc5cnccc45)CC3)C2=O)C(=O)N1 (centres unmarked) [Compound A39, 3-(1′-(isoquinolin-5-ylmethyl)-6-oxo-6,8-dihydro-2H,7H-spiro[furo[2,3-e]isoindole-3,4′-piperidin]-7-yl)piperidine-2,6-dione] | < 50 nM | 60 to 80%
20 | O=C1CCC(N2Cc3c(ccc4c3OCC43CCN(Cc4cccc5nccnc45)CC3)C2=O)C(=O)N1 (centres unmarked) [Compound A47, 3-(6-oxo-1′-(quinoxalin-5-ylmethyl)-6,8-dihydro-2H,7H-spiro[furo[2,3-e]isoindole-3,4′-piperidin]-7-yl)piperidine-2,6-dione] | > 500 nM | 40 to 60%
21 | O=C1CCC(N2Cc3c(ccc4c3OCC43CCN(Cc4cccc(-c5cn[nH]c5)c4)CC3)C2=O)C(=O)N1 (centres unmarked) [Compound A104, 3-(1′-(3-(1H-pyrazol-4-yl)benzyl)-6-oxo-6,8-dihydro-2H,7H-spiro[furo[2,3-e]isoindole-3,4′-piperidin]-7-yl)piperidine-2,6-dione] | < 50 nM | > 80%
22 | CC(C)c1cccc(CN2CCC3(CC2)COc2c3ccc3c2CN(C2CCC(=O)NC2=O)C3=O)c1 (centres unmarked) [Compound A203, 3-(1′-(3-isopropylbenzyl)-6-oxo-6,8-dihydro-2H,7H-spiro[furo[2,3-e]isoindole-3,4′-piperidin]-7-yl)piperidine-2,6-dione] | > 500 nM | < 40%
23 | O=C1CCC(N2Cc3c(ccc4c3OCC43CCN(Cc4ccc(C(F)(F)F)cc4)CC3)C2=O)C(=O)N1 (centres unmarked) [Compound A194, 3-(6-oxo-1′-(4-(trifluoromethyl)benzyl)-6,8-dihydro-2H,7H-spiro[furo[2,3-e]isoindole-3,4′-piperidin]-7-yl)piperidine-2,6-dione] | > 500 nM | < 40%
24 | O=C1CCC(N2Cc3c(ccc4c3OCC43CCN(CC4CCCC(c5ccccc5)C4)CC3)C2=O)C(=O)N1 (centres unmarked) [Compound A181, 3-(6-oxo-1′-((3-phenylcyclohexyl)methyl)-6,8-dihydro-2H,7H-spiro[furo[2,3-e]isoindole-3,4′-piperidin]-7-yl)piperidine-2,6-dione] | 200 to 500 nM | 40 to 60%
